From ChEMBL document CHEMBL1201862, “PubChem BioAssay data set” (2004)
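These data come from cells grown in 96-well plates and exposed to compound for 48 hours at five concentrations. The concentration for 50% growth inhibition is given as GI50.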 The source made the active and inactive calls. Rule as the data show it: active = GI50 up to about 1.1 µM and inactive = higher.

Legend:
Assay in all cases: inhibition of tumour cell growth, NCI panel, 48 h
UACC-62 = test system: UACC-62
Hs-578T = test system: Hs-578T
K562 = test system: K562
LOX IMVI = test system: LOX IMVI
U-251 = test system: U-251
T47D = test system: T47D
COLO 205 = test system: COLO 205
KM12 = test system: KM12
ACHN = test system: ACHN
RXF 393 = test system: RXF 393
SF-268 = test system: SF-268
NCI-H460 = test system: NCI-H460
MCF7 = test system: MCF7
CAKI-1 = test system: CAKI-1
A549 = test system: A549
OVCAR-3 = test system: OVCAR-3
KM-20L2 = test system: KM-20L2
M19-MEL = test system: M19-MEL
UACC-257 = test system: UACC-257
NCI/ADR-RES = test system: NCI/ADR-RES
MDA-N = test system: MDA-N
NCI-H522 = test system: NCI-H522
CCRF-CEM = test system: CCRF-CEM
786-0 = test system: 786-0
HL-60 = test system: HL-60
MOLT-4 = test system: MOLT-4
SF-295 = test system: SF-295
SW-620 = test system: SW-620
M14 = test system: M14
RPMI-8226 = test system: RPMI-8226
OVCAR-5 = test system: OVCAR-5
HOP-62 = test system: HOP-62
OVCAR-8 = test system: OVCAR-8
SN12C = test system: SN12C
DLD-1 = test system: DLD-1
DU-145 = test system: DU-145
SF-539 = test system: SF-539
OVCAR-4 = test system: OVCAR-4
NCI-H23 = test system: NCI-H23
SR = test system: SR
HCT-15 = test system: HCT-15
DMS-114 = test system: DMS-114
RXF 631 = test system: RXF 631
A498 = test system: A498
HT-29 = test system: HT-29
HCC 2998 = test system: HCC 2998
SK-MEL-28 = test system: SK-MEL-28
PC-3 = test system: PC-3
SK-OV-3 = test system: SK-OV-3
XF498 = test system: XF498
EKVX = test system: EKVX
HCT-116 = test system: HCT-116
SK-MEL-5 = test system: SK-MEL-5
DMS-273 = test system: DMS-273
UO-31 = test system: UO-31
SNB-75 = test system: SNB-75
SNB-19 = test system: SNB-19
IGROV-1 = test system: IGROV-1
HOP-92 = test system: HOP-92
NCI-H226 = test system: NCI-H226
LXFL 529 = test system: LXFL 529
TK-10 = test system: TK-10
Malme-3M = test system: Malme-3M
SK-MEL-2 = test system: SK-MEL-2
SNB-78 = test system: SNB-78

Measured: GI50

COC(=O)c1cc(CNCCc2c[nH]c3ccccc23)on1
> 100 µM: HCT-15
inactive: UACC-62 > 100 µM | Hs-578T > 100 µM | K562 > 100 µM | LOX IMVI > 100 µM | U-251 > 100 µM | T47D > 100 µM | COLO 205 > 100 µM | KM12 > 100 µM | ACHN > 60.8 µM | RXF 393 > 66.8 µM | SF-268 > 100 µM | NCI-H460 > 58.1 µM | MCF7 > 100 µM | CAKI-1 > 78.2 µM | A549 > 100 µM | OVCAR-3 > 100 µM | KM-20L2 > 100 µM | M19-MEL > 100 µM | UACC-257 > 100 µM | NCI/ADR-RES > 100 µM | MDA-N > 100 µM | NCI-H522 29.6 µM | CCRF-CEM > 100 µM | 786-0 33.8 µM | HL-60 > 100 µM | MOLT-4 > 100 µM | SF-295 > 91.8 µM | SW-620 > 100 µM | M14 > 100 µM | RPMI-8226 > 100 µM | OVCAR-5 > 100 µM | HOP-62 > 100 µM | OVCAR-8 > 100 µM | SN12C > 100 µM | DLD-1 > 100 µM | DU-145 > 100 µM | SF-539 74.1 µM | OVCAR-4 > 33.8 µM | NCI-H23 > 100 µM | SR > 100 µM | DMS-114 > 100 µM | RXF 631 > 100 µM | A498 > 100 µM | HT-29 > 100 µM | HCC 2998 > 95.5 µM | SK-MEL-28 > 100 µM | PC-3 > 100 µM | SK-OV-3 > 100 µM | XF498 23.1 µM | EKVX > 100 µM | HCT-116 > 100 µM | SK-MEL-5 > 100 µM | DMS-273 > 100 µM | UO-31 > 100 µM | SNB-75 > 65 µM | SNB-19 > 100 µM | IGROV-1 > 100 µM | HOP-92 92.5 µM | NCI-H226 > 100 µM | LXFL 529 > 100 µM | TK-10 > 100 µM | Malme-3M > 100 µM | SK-MEL-2 > 100 µM

CCN(CC)CCSc1nc2cccc([N+](=O)[O-])c2[nH]1
inactive: UACC-62 > 100 µM | K562 > 100 µM | LOX IMVI > 100 µM | COLO 205 > 100 µM | KM12 > 100 µM | RXF 393 > 100 µM | CAKI-1 > 100 µM | A549 > 100 µM | OVCAR-3 > 100 µM | M19-MEL > 100 µM | UACC-257 > 100 µM | NCI-H522 > 100 µM | CCRF-CEM > 100 µM | HL-60 > 100 µM | MOLT-4 > 100 µM | SW-620 > 100 µM | M14 > 100 µM | RPMI-8226 > 100 µM | OVCAR-8 > 100 µM | SN12C > 100 µM | SNB-78 > 100 µM | SF-539 > 100 µM | OVCAR-4 > 100 µM | NCI-H23 > 100 µM | DMS-114 > 100 µM | RXF 631 > 100 µM | HT-29 > 100 µM | HCC 2998 > 100 µM | SK-MEL-28 > 100 µM | SK-OV-3 > 100 µM | XF498 > 100 µM | EKVX > 100 µM | SK-MEL-5 > 100 µM | DMS-273 > 100 µM | SNB-75 > 100 µM | IGROV-1 > 100 µM | HOP-92 33.4 µM | NCI-H226 > 100 µM | LXFL 529 > 100 µM | TK-10 > 100 µM
> 100 µM: HCT-15
